Measured values published in PubChem BioAssay AID256 (DTP/NCI, 2004).
Several values for one entry are separate records, joined by “and”; a condition that tells them apart may be missing. Equal values may be shown once. Inconclusive results and toxic doses are left out. Rule for the calls: active = survival T/C of 150% or more; inactive = T/C below 125% in these data.

Test system: CD2F1 mice, L1210 leukemia ip, survival T/C
Assay: NCI In Vivo Anticancer Drug Screen. Data for tumor model L1210 Leukemia (intraperitoneal) in CD2F1 (CDF1) mice
Details: higher = longer survival
Method in brief: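 In this screen, transplantable tumors were grown in mice given either the compound or its vehicle. Results were expressed as the treated measurement relative to the control measurement.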

[1] = endpoint: mean survival time, dose: 100.0 mg/kg/injection, schedule: Q01DX001 (ip), vehicle: saline
[2] = endpoint: mean survival time, dose: 200.0 mg/kg/injection, schedule: Q01DX001 (ip), vehicle: saline
[3] = endpoint: mean survival time, dose: 12.5 mg/kg/injection, schedule: Q01DX009 (ip), vehicle: saline with Tween-80
[4] = endpoint: mean survival time, dose: 25.0 mg/kg/injection, schedule: Q01DX009 (ip), vehicle: saline with Tween-80
[5] = endpoint: mean survival time, dose: 50.0 mg/kg/injection, schedule: Q01DX009 (ip), vehicle: saline with Tween-80
[6] = endpoint: mean survival time, dose: 100.0 mg/kg/injection, schedule: Q04DX003 (ip), vehicle: saline
[7] = endpoint: mean survival time, dose: 100.0 mg/kg/injection, schedule: Q04DX003 (ip), vehicle: saline with Tween-80
[8] = endpoint: mean survival time, dose: 200.0 mg/kg/injection, schedule: Q04DX003 (ip), vehicle: saline with Tween-80
[9] = endpoint: mean survival time, dose: 400.0 mg/kg/injection, schedule: Q04DX003 (ip), vehicle: saline with Tween-80

Measured: T/C

C=C(C#N)C(=O)OCC(CC)CC.C=C(C#N)C(=O)OCC(CC)CC.CS(C)=O.CS(C)=O.Nc1c(N=Nc2ccc(-c3ccc(N=Nc4cc(S(=O)(=O)[O-])c5ccccc5c4N)cc3)cc2)cc(S(=O)(=O)[O-])c2ccccc12.[Pt+2]
inactive: endpoint: median survival time, dose: 3.12 mg/kg/injection, schedule: Q04DX003 (ip), vehicle: saline with Tween-80 95 % of control | endpoint: median survival time, dose: 6.25 mg/kg/injection, schedule: Q04DX003 (ip), vehicle: saline with Tween-80 106 % of control | endpoint: median survival time, dose: 12.5 mg/kg/injection, schedule: Q04DX003 (ip), vehicle: saline with Tween-80 108 % of control | endpoint: median survival time, dose: 25.0 mg/kg/injection, schedule: Q04DX003 (ip), vehicle: saline with Tween-80 100 % of control | endpoint: median survival time, dose: 50.0 mg/kg/injection, schedule: Q04DX003 (ip), vehicle: saline with Tween-80 97 % of control | endpoint: median survival time, dose: 100.0 mg/kg/injection, schedule: Q04DX003 (ip), vehicle: saline with Tween-80 98 % of control | endpoint: median survival time, dose: 200.0 mg/kg/injection, schedule: Q04DX003 (ip), vehicle: saline with Tween-80 90 % of control

CC(=O)Oc1c(C)ncc(C=O)c1C
inactive: endpoint: mean survival time, dose: 75.0 mg/kg/injection, schedule: Q01DX001 (ip), vehicle: other 101 % of control | endpoint: mean survival time, dose: 150.0 mg/kg/injection, schedule: Q01DX001 (ip), vehicle: other 100 % of control

CCN(CC)CCCNc1ncnc(Cl)c1C(=C(C)C)c1ccccc1
inactive: [1] 97 % of control | [2] 105 % of control

CCOC(=O)C1(c2ccccc2)C(=O)Oc2ccccc21 (stereo not drawn)
inactive: [3] 98 % of control | [4] 94 % of control and 96 % of control | [5] 89 % of control and 104 % of control | endpoint: mean survival time, dose: 100.0 mg/kg/injection, schedule: Q01DX009 (ip), vehicle: saline with Tween-80 89 % of control and 93 % of control | endpoint: mean survival time, dose: 200.0 mg/kg/injection, schedule: Q01DX009 (ip), vehicle: saline with Tween-80 89 % of control | endpoint: mean survival time, dose: 400.0 mg/kg/injection, schedule: Q01DX009 (ip), vehicle: saline with Tween-80 87 % of control and 91 % of control

O=C1C(Sc2ccc3ccccc3c2)=C(Sc2ccc3ccccc3c2)C(=O)c2ccccc21
inactive: endpoint: mean survival time, dose: 25.0 mg/kg/injection, schedule: Q04DX003 (ip), vehicle: saline with Tween-80 94 % of control | endpoint: mean survival time, dose: 50.0 mg/kg/injection, schedule: Q04DX003 (ip), vehicle: saline with Tween-80 94 % of control

CC[NH-].[Cl][Pt+2][Cl].[NH2-]
inactive: endpoint: mean survival time, dose: 1.56 mg/kg/injection, schedule: Q04DX003 (ip), vehicle: water 118 % of control | endpoint: mean survival time, dose: 3.13 mg/kg/injection, schedule: Q04DX003 (ip), vehicle: distilled water + Tween-80 119 % of control | endpoint: mean survival time, dose: 6.25 mg/kg/injection, schedule: Q04DX003 (ip), vehicle: water 124 % of control | endpoint: mean survival time, dose: 25.0 mg/kg/injection, schedule: Q04DX003 (ip), vehicle: distilled water + Tween-80 98 % of control

c1ccc(CC2=NCCO2)cc1
inactive: [6] 100 % of control | endpoint: mean survival time, dose: 200.0 mg/kg/injection, schedule: Q04DX003 (ip), vehicle: saline 95 % of control | endpoint: mean survival time, dose: 400.0 mg/kg/injection, schedule: Q04DX003 (ip), vehicle: saline 98 % of control

O=C1CC2CC1C1C3CCC(CC3)C21 (stereo not drawn)
inactive: endpoint: mean survival time, dose: 3.13 mg/kg/injection, schedule: Q01DX009 (ip), vehicle: saline with Tween-80 86 % of control | endpoint: mean survival time, dose: 6.25 mg/kg/injection, schedule: Q01DX009 (ip), vehicle: saline with Tween-80 101 % of control | [3] 90 % of control and 98 % of control

N=C(N)SC(c1ccccc1)c1ccccc1
inactive: endpoint: mean survival time, dose: 25.0 mg/kg/injection, schedule: Q04DX003 (ip), vehicle: saline 100 % of control | endpoint: mean survival time, dose: 50.0 mg/kg/injection, schedule: Q04DX003 (ip), vehicle: saline 94 % of control | [6] 102 % of control

CCCCS(=O)(=O)C1CCCC1=O (stereo not drawn)
inactive: [7] 102 % of control | [8] 102 % of control | [9] 102 % of control

O=NC1CC=CC1Cl (stereo not drawn)
inactive: [1] 96 % of control and 98 % of control | [2] 107 % of control and 102 % of control | endpoint: mean survival time, dose: 400.0 mg/kg/injection, schedule: Q01DX001 (ip), vehicle: saline 101 % of control and 98 % of control

Cc1nc(-c2ccccc2)[nH]c(=O)c1CCO
inactive: [7] 100 % of control | [8] 100 % of control | [9] 111 % of control

O=C(O)C1C2C=CC(C2)C1C(=O)O (stereo not drawn)
inactive: [7] 97 % of control | [8] 92 % of control | [9] 98 % of control

COP12(OCCO1)SC(C(F)(F)F)=C(C(F)(F)F)S2
inactive: [3] 102 % of control and 109 % of control | [4] 96 % of control and 101 % of control | [5] 100 % of control

CC(C)CC(NC(=O)C(N)Cc1ccc(N(CCCl)CCCl)cc1)C(=O)O (stereo not drawn)
inactive: endpoint: mean survival time, dose: 1.0 mg/kg/injection, schedule: Q04DX003 (ip), vehicle: saline with Tween-80 106 % of control | endpoint: mean survival time, dose: 2.0 mg/kg/injection, schedule: Q04DX003 (ip), vehicle: saline with Tween-80 111 % of control | endpoint: mean survival time, dose: 4.0 mg/kg/injection, schedule: Q04DX003 (ip), vehicle: saline with Tween-80 113 % of control | endpoint: mean survival time, dose: 8.0 mg/kg/injection, schedule: Q04DX003 (ip), vehicle: saline with Tween-80 118 % of control | endpoint: mean survival time, dose: 32.0 mg/kg/injection, schedule: Q04DX003 (ip), vehicle: saline with Tween-80 112 % of control | endpoint: mean survival time, dose: 64.0 mg/kg/injection, schedule: Q04DX003 (ip), vehicle: saline with Tween-80 121 % of control
